Measurements published in PubChem BioAssay (NCI).
Values joined by “and” are separate entries in the source; they are usually repeats but may differ in a detail not shown here. Identical values can stand only once.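 Growth conditions: 96-well plates. Treatment: test compound, 48 hours, 5 concentrations. Analysis: linear interpolation between bracketing concentrations; unreached endpoints set to highest concentration. At the GI50, growth is halved. At the TGI there is no net growth.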

What was measured:
Assay in all cases: NCI anticancer screen, dose series, 48 h
TK-10 renal = system: TK-10 renal
SK-MEL-2 melanoma = system: SK-MEL-2 melanoma
KM12 colon = system: KM12 colon
SK-MEL-5 melanoma = system: SK-MEL-5 melanoma
MOLT-4 leukemia = system: MOLT-4 leukemia
UO-31 renal = system: UO-31 renal
CAKI-1 renal = system: CAKI-1 renal
OVCAR-3 ovarian = system: OVCAR-3 ovarian
SW-620 colon = system: SW-620 colon
DU-145 prostate = system: DU-145 prostate

Row | Compound | TGI (TK-10 renal) | TGI (SK-MEL-2 melanoma) | TGI (KM12 colon) | TGI (SK-MEL-5 melanoma) | TGI (MOLT-4 leukemia) | TGI (UO-31 renal) | TGI (CAKI-1 renal) | TGI (OVCAR-3 ovarian) | TGI (SW-620 colon) | GI50 (TK-10 renal) | GI50 (KM12 colon) | GI50 (SK-MEL-5 melanoma) | GI50 (MOLT-4 leukemia) | GI50 (OVCAR-3 ovarian) | GI50 (SW-620 colon) | GI50 (DU-145 prostate) | TGI (DU-145 prostate) | GI50 (UO-31 renal) | GI50 (SK-MEL-2 melanoma)
1 | OCC1CC2C=CCC(C2)C1 (centres undefined) | > 100 µM | > 100 µM | > 100 µM | > 100 µM | > 100 µM | > 100 µM | > 100 µM | > 100 µM | > 100 µM |  |  |  |  |  |  |  |  |  | 
2 | CSc1nc2c(nc(N)n2C2OC(CO)C(O)C(O)C2O)c(=O)[nH]1 (centres undefined) | > 100 µM |  | > 100 µM | > 100 µM | > 100 µM | > 100 µM | > 100 µM | > 100 µM | > 100 µM |  |  |  |  |  |  |  |  |  | 
3 | Cn1c(=O)nc2n(-c3ccc(F)c(F)c3)c3ccccc3nc-2c1=O | > 100 µM | 55.3 µM | > 100 µM | 22.5 µM |  | > 100 µM | > 100 µM | 10.3 µM | 20.3 µM |  |  |  |  |  |  |  |  |  | 
4 | CON1C(=O)C2(CCCCC2)C(=O)C12C=CC(C)CC2 (centres undefined) | > 100 µM | > 100 µM | > 100 µM | > 100 µM | > 100 µM | > 100 µM | > 100 µM | > 100 µM | > 100 µM |  |  |  |  |  |  |  |  |  | 
5 | Cc1ccc(NC(=O)C(=O)C2C(=O)NC(=O)NC2=O)c(C)c1 | > 100 µM | > 100 µM | > 100 µM | > 100 µM | > 100 µM | > 100 µM | > 100 µM | > 100 µM | > 100 µM |  |  |  |  |  |  |  |  |  | 
6 | CN1C(c2ccccc2)CC(=NO)CC1c1ccccc1 (centres undefined) | > 100 µM | > 100 µM | > 100 µM | > 100 µM | 62.2 µM and 69.3 µM | > 100 µM | > 100 µM | > 100 µM and 77.3 µM | > 100 µM | 66.5 µM | 49.1 µM | 71.8 µM | 23 µM | 24.9 µM | 43 µM |  |  |  | 
7 | CC[C@H](C)[C@H](NC(=O)c1ncccn1)C(=O)N(C)[C@H](C[C@@H](OC(C)=O)c1nc(C(=O)N[C@@H](Cc2ccccc2)C[C@H](C)C(=O)OC)cs1)C(C)C | > 25 µM |  | > 25 µM | 4.77 µM | > 25 µM | > 25 µM |  | > 25 µM | > 25 µM | 16.6 µM | 1.04 µM | 0.848 µM | 2.39 µM | 0.796 µM | 0.896 µM | 1.78 µM | > 25 µM | 6.01 µM | 
8 | COC(=O)CCCCCOS(=O)(=O)c1ccc(C)cc1 | > 100 µM | > 100 µM | > 100 µM | > 100 µM | > 100 µM | > 100 µM |  | > 100 µM | > 100 µM |  |  |  |  |  |  |  |  |  | 
9 | COC(=O)C(/C(=N/N)C(=O)Nc1cc(Cl)ccc1Cl)c1nc2ccc([N+](=O)[O-])cc2[nH]c1=O (centres undefined) | > 100 µM | > 100 µM | > 100 µM | > 100 µM | > 100 µM | > 100 µM |  | > 100 µM | > 100 µM |  |  |  |  |  |  |  |  |  | 
10 | O=[N+]([O-])c1cc(I)cc(/C=N/NS(=O)(=O)c2ccc(F)cc2)c1O | 77.7 µM | 35.7 µM | 61.9 µM | 45.2 µM | 57.7 µM | 61 µM | 63.1 µM | 38.6 µM | > 100 µM |  |  |  |  |  |  |  |  |  | 
11 | CC1CCCc2c1n[nH]c2CC1CC(=O)NC(=O)C1 (centres undefined) | > 100 µM |  | > 100 µM |  | > 100 µM | > 100 µM | > 100 µM | > 100 µM | > 100 µM |  |  |  |  |  |  |  |  |  | 
12 | COc1ccc(/C=C/c2cc(OC)c(OC)c(OC)c2)cc1OC | > 100 µM | > 100 µM | > 100 µM | > 100 µM | > 100 µM | > 100 µM | > 100 µM | > 100 µM | > 100 µM |  |  |  |  |  |  |  |  |  | 
13 | COc1nc(NC2OC(COC(C)=O)C(OC(C)=O)C(OC(C)=O)C2OC(C)=O)c(N=C(C)C(C)=O)c(=O)n1C (centres undefined) | > 100 µM | > 100 µM | > 100 µM | > 100 µM | > 100 µM | > 100 µM | > 100 µM | > 100 µM | > 100 µM |  |  |  |  |  |  |  |  |  | 
14 | Nc1ccc(C(=O)CC2(O)C(=O)Nc3ccccc32)cc1 (centres undefined) | > 100 µM | > 100 µM |  | > 100 µM | > 100 µM | > 100 µM | > 100 µM | > 100 µM | > 100 µM |  |  |  |  |  |  |  |  |  | 
15 | CCOC(=O)NC(=O)c1cn(C2CCCCC2)c(=O)n(C)c1=O | > 100 µM | > 100 µM | > 100 µM | > 100 µM | > 100 µM | > 100 µM | > 100 µM | > 100 µM | > 100 µM |  |  |  |  |  |  |  |  |  | 
16 | C=CCN=C1NC(=O)C(CC(=O)Nc2cccc(Cl)c2)S1 (centres undefined) | > 100 µM | > 100 µM | > 100 µM | > 100 µM | > 100 µM | > 100 µM | > 100 µM | > 100 µM | > 100 µM |  |  |  |  |  |  |  |  |  | 
17 | Cc1ccccc1SC(/C=C/NNC1=NC(c2ccccc2)C(c2ccccc2)=NN1)c1ccccc1 (centres undefined) | 43.2 µM | 45.3 µM | > 100 µM | > 100 µM | > 100 µM | 48.6 µM | 30 µM | 31.7 µM | > 100 µM |  |  |  |  |  |  |  |  |  | 
18 | NCCCNCc1c2ccccc2c(CNCCCN)c2ccccc12 | > 100 µM | 28.2 µM | 43.9 µM | 66.6 µM | 43.9 µM | > 100 µM | > 100 µM | 98.5 µM | 26 µM |  |  |  |  |  |  |  |  |  | 
19 | COC(=O)[C@@H](C)C[C@H](Cc1ccccc1)NC(=O)c1csc([C@@H](C[C@H](C(C)C)N(C)C(=O)[C@@H](NC(=O)[C@H]2CCCCN2C)c2ccc(F)cc2)OC(C)=O)n1 | 25 µM and > 100 µM | > 100 µM | 25 µM and > 100 µM |  | 8.45 µM and 54.4 µM |  |  | 0.0157 µM and 0.129 µM | 25 µM and > 100 µM |  |  | 0.00535 µM and 0.0025 µM and 0.0101 µM |  | 0.00309 µM and 0.0103 µM |  |  |  |  | 0.00682 µM and 0.0293 µM
20 | O=C(N/C(=C\c1cccc([N+](=O)[O-])c1)c1nc2c3c(ccc2[nH]1)C(=O)c1ccccc1C3=O)c1ccccc1 | 82.2 µM | > 100 µM | > 100 µM | > 100 µM |  | > 100 µM | > 100 µM | > 100 µM | > 100 µM |  |  |  |  |  |  |  |  |  | 
21 | CC(C)(C)OC(=O)NC(Cc1ccccc1)C(=S)N1CCCC1 (centres undefined) | > 100 µM | > 100 µM | > 100 µM | > 100 µM | > 100 µM | > 100 µM | > 100 µM | > 100 µM | > 100 µM |  |  |  |  |  |  |  |  |  | 
